Target: T1, sGC α1/β1 heterodimer stably expressed in CHO-K1 cell line (CHO-K1/sGC) (Homo sapiens, UniProt Q02108+Q02153)
T1 construct: expressed in transfected cells
T1 sequence (Q02108 1-690): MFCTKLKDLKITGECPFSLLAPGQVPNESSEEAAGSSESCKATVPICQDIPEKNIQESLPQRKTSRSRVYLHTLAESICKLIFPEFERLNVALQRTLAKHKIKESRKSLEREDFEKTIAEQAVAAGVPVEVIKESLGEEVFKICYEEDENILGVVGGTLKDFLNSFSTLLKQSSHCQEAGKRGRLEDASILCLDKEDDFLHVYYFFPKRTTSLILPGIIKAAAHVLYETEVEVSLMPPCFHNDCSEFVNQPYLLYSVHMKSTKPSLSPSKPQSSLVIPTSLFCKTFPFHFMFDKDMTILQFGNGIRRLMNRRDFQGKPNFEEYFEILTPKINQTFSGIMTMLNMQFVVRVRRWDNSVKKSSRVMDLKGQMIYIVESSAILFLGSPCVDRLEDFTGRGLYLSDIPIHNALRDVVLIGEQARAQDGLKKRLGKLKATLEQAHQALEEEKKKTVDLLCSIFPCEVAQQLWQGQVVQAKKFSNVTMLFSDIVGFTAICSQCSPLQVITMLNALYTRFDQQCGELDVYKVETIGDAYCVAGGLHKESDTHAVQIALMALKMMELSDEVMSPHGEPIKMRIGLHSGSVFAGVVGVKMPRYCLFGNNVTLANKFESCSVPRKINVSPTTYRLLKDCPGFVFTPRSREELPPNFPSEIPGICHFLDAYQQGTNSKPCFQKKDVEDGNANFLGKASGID
T1 sequence (Q02153 1-619): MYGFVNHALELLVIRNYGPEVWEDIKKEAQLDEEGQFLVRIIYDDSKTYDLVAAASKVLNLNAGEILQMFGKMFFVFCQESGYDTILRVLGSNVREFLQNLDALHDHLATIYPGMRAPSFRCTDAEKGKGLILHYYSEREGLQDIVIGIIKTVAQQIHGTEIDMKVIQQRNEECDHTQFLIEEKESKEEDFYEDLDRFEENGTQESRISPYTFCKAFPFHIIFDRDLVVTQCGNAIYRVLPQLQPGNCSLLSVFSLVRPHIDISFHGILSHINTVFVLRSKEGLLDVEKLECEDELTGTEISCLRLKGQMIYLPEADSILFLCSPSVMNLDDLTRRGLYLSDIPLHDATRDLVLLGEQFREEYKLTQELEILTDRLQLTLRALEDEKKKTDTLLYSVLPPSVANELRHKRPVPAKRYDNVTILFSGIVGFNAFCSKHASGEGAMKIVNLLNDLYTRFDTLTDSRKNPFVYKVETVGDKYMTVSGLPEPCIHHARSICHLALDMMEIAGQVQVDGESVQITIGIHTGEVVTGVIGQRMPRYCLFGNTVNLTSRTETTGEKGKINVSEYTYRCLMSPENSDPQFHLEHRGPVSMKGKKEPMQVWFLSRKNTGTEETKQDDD
Test: Cell-based sGC Functional Assay (CASA Assay), cGMP generation
Conditions: CHO-K1/sGC cells, 1 hr at 37° C., cGMP by HTRF, presence or absence of 1 μM DETA-NO not given; for EC50: 4P fit, read-out: IP (nM) (inflection point)
Procedure, shortened: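 CHO-K1 cells stably expressing human sGC α1/β1 (4×10^5/mL, 0.5 mM IBMX) were treated with compounds (2.5% DMSO final) ± 1 μM DETA-NO for 1 hr at 37° C. Intracellular cGMP measured by HTRF. Activity expressed as % of Compound A maximal cGMP; IP and maximum fold induction from 4P fit.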

Row | SMILES | EC50 [nM] | Emax (read-out: % Act. (percent activation relative to maximum cGMP production of Compound A = 100%)) [%]
1 | CCCc1nc(-c2nc(N)c3c(n2)NC(=O)C3(C)c2ccc(Cl)cc2)cn2nc(C)nc12 (centres unmarked) [Example 93A, 4-amino-5-(4-chlorophenyl)-5-methyl-2-(2-methyl-8-propyl-[1,2,4]triazolo[1,5-a]pyrazin-6-yl)-5H-pyrrolo[2,3-d]pyrimidin-6(7H)-one] | 439 | 
2 | CC1(c2ccc(Cl)cc2)C(=O)Nc2nc(-c3cn4ncnc4cn3)nc(N)c21 (centres unmarked) [Example 94A, 2-([1,2,4]triazolo[1,5-a]pyrazin-6-yl)-4-amino-5-(4-chlorophenyl)-5-methyl-5H-pyrrolo[2,3-d]pyrimidin-6(7H)-one] | 79.4 | 
3 | CC1(c2cn(C3CC3)nn2)C(=O)Nc2nc(-c3cn4ncnc4c(CCC(F)(F)C(F)(F)F)n3)nc(N)c21 (centres unmarked) [Example 95B, 4-Amino-5-(1-cyclopropyl-1H-1,2,3-triazol-4-yl)-5-methyl-2-(8-(3,3,4,4,4-pentafluorobutyl)-[1,2,4]triazolo[1,5-a]pyrazin-6-yl)-5H-pyrrolo[2,3-d]pyrimidin-6(7H)-one] | 257 | 
4 | Nc1nc(-c2cn3ncnc3c(CCC(F)(F)C(F)(F)F)n2)nc2c1C(c1cn(C3CC3)nn1)(C1CC1)C(=O)N2 (centres unmarked) [Example 96B, 4-amino-5-cyclopropyl-5-(1-cyclopropyl-1H-1,2,3-triazol-4-yl)-2-(8-(3,3,4,4,4-pentafluorobutyl)-[1,2,4]triazolo[1,5-a]pyrazin-6-yl)-5H-pyrrolo[2,3-d]pyrimidin-6(7H)-one] | 134 | 
5 | CC1(c2nnc(C3CC3)o2)C(=O)Nc2nc(-c3cn4ncnc4c(CCC(F)(F)C(F)(F)F)n3)nc(N)c21 (centres unmarked) [Example 98B, 4-amino-5-(5-cyclopropyl-1,3,4-oxadiazol-2-yl)-5-methyl-2-(8-(3,3,4,4,4-pentafluorobutyl)-[1,2,4]triazolo[1,5-a]pyrazin-6-yl)-5H-pyrrolo[2,3-d]pyrimidin-6(7H)-one] | 86.1 | 
6 | CC1(c2nnc(C3CC3)o2)C(=O)Nc2nc(-c3cn4ncnc4c(CCCC(F)(F)F)n3)nc(N)c21 (centres unmarked) [Example 99A, 4-amino-5-(5-cyclopropyl-1,3,4-oxadiazol-2-yl)-5-methyl-2-(8-(4,4,4-trifluorobutyl)-[1,2,4]triazolo[1,5-a]pyrazin-6-yl)-5H-pyrrolo[2,3-d]pyrimidin-6(7H)-one] | 47.5 | 
7 | CC1(c2nnc(C(F)F)o2)C(=O)Nc2nc(-c3cn4ncnc4c(CCCC(F)(F)F)n3)nc(N)c21 (centres unmarked) [Example 100A, 4-amino-5-(5-(difluoromethyl)-1,3,4-oxadiazol-2-yl)-5-methyl-2-(8-(4,4,4-trifluorobutyl)-[1,2,4]triazolo[1,5-a]pyrazin-6-yl)-5H-pyrrolo[2,3-d]pyrimidin-6(7H)-one] | 127 | 
8 | CC1(c2nnc(C(F)(F)F)o2)C(=O)Nc2nc(-c3cn4ncnc4c(CCCC(F)(F)F)n3)nc(N)c21 (centres unmarked) [Example 101A, 4-amino-5-methyl-2-(8-(4,4,4-trifluorobutyl)-[1,2,4]triazolo[1,5-a]pyrazin-6-yl)-5-(5-(trifluoromethyl)-1,3,4-oxadiazol-2-yl)-5H-pyrrolo[2,3-d]pyrimidin-6(7H)-one] | 121 | 
9 | CCCCc1nc(-c2nc(N)c3c(n2)NC(=O)C3(C)c2nnc(C(F)(F)F)o2)cn2ncnc12 (centres unmarked) [Example 102A, 4-amino-2-(8-butyl-[1,2,4]triazolo[1,5-a]pyrazin-6-yl)-5-methyl-5-(5-(trifluoromethyl)-1,3,4-oxadiazol-2-yl)-5H-pyrrolo[2,3-d]pyrimidin-6(7H)-one] | 29.1 | 
10 | Cc1nc2c(CCC(F)(F)C(F)(F)F)nc(-c3nc(N)c4c(n3)NC(=O)C4(C)c3nnc(C4CC4)o3)cn2n1 (centres unmarked) [Example 103A, 4-amino-5-(5-cyclopropyl-1,3,4-oxadiazol-2-yl)-5-methyl-2-(2-methyl-8-(3,3,4,4,4-pentafluorobutyl)-[1,2,4]triazolo[1,5-a]pyrazin-6-yl)-5H-pyrrolo[2,3-d]pyrimidin-6(7H)-one] | 219 | 
11 | Nc1nc(-c2cn3ncnc3c(CCCC(F)(F)F)n2)nc2c1C(c1nnc(C3CC3)o1)(C1CC1)C(=O)N2 (centres unmarked) [Example 104A, 4-amino-5-cyclopropyl-5-(5-cyclopropyl-1,3,4-oxadiazol-2-yl)-2-(8-(4,4,4-trifluorobutyl)-[1,2,4]triazolo[1,5-a]pyrazin-6-yl)-5H-pyrrolo[2,3-d] pyrimidin-6(7H)-one] | 258 | 
12 | CCCCc1nc(-c2nc(N)c3c(n2)NC(=O)C3(c2nnc(C(F)(F)F)o2)C2CC2)cn2ncnc12 (centres unmarked) [Example 105A, 4-amino-2-(8-butyl-[1,2,4]triazolo[1,5-a]pyrazin-6-yl)-5-cyclopropyl-5-(5-(trifluoromethyl)-1,3,4-oxadiazol-2-yl)-5H-pyrrolo[2,3-d]pyrimidin-6(7H)-one] | 26.7 | 
13 | Nc1nc(-c2cn3ncnc3c(CCCC(F)(F)F)n2)nc2c1C(c1nnc(C(F)(F)F)o1)(C1CC1)C(=O)N2 (centres unmarked) [Example 106A, 4-amino-5-cyclopropyl-2-(8-(4,4,4-trifluorobutyl)-[1,2,4]triazolo[1,5-a]pyrazin-6-yl)-5-(5-(trifluoromethyl)-1,3,4-oxadiazol-2-yl)-5H-pyrrolo[2,3-d]pyrimidin-6(7H)-one] | 15.5 | 
14 | Nc1nc(-c2cn3ncnc3c(CCC(F)(F)C(F)(F)F)n2)nc2c1C(c1nnc(C3CC3)o1)(C1CC1)C(=O)N2 (centres unmarked) [Example 107A, 4-amino-5-cyclopropyl-5-(5-cyclopropyl-1,3,4-oxadiazol-2-yl)-2-(8-(3,3,4,4,4-pentafluorobutyl)-[1,2,4]triazolo[1,5-a]pyrazin-6-yl)-5H-pyrrolo[2,3-d]pyrimidin-6(7H)-one] | 74.7 | 
15 | Nc1nc(-c2cn3ncnc3c(CCCC(F)(F)F)n2)nc2c1C(c1nnc(C3(F)CC3)o1)(C1CC1)C(=O)N2 (centres unmarked) [Example 108A, 4-amino-5-cyclopropyl-5-(5-(1-fluorocyclopropyl)-1,3,4-oxadiazol-2-yl)-2-(8-(4,4,4-trifluorobutyl)-[1,2,4]triazolo[1,5-a]pyrazin-6-yl)-5H-pyrrolo[2,3-d] pyrimidin-6(7H)-one] | 14.7 | 
16 | CC1(c2nnc(C3(F)CC3)o2)C(=O)Nc2nc(-c3cn4ncnc4c(CCCC(F)(F)F)n3)nc(N)c21 (centres unmarked) [Example 109A, 4-amino-5-(5-(1-fluorocyclopropyl)-1,3,4-oxadiazol-2-yl)-5-methyl-2-(8-(4,4,4-trifluorobutyl)-[1,2,4]triazolo[1,5a]pyrazin-6-yl)-5H-pyrrolo[2,3-d] pyrimidin-6(7H)-one] | 7.3 | 
17 | CC1(c2ccc(O)cn2)C(=O)Nc2nc(-c3cn4ncnc4c(CCC(F)(F)C(F)(F)F)n3)nc(N)c21 (centres unmarked) [Example 110A, 4-Amino-5-(5-hydroxypyridin-2-yl)-5-methyl-2-(8-(3,3,4,4,4-pentafluorobutyl)-[1,2,4]triazolo [1,5-a]pyrazin-6-yl)-5,7-dihydro-6H-pyrrolo [2,3-d]pyrimidin-6-one] | 139 | 70
18 | CC1(c2ccc(O)cn2)C(=O)Nc2nc(-c3cn4ncnc4c(CCCC(F)(F)F)n3)nc(N)c21 (centres unmarked) [Example 111A, 4-amino-5-(5-hydroxypyridin-2-yl)-5-methyl-2-(8-(4,4,4-trifluorobutyl)-[1,2,4]triazolo[1,5-a]pyrazin-6-yl)-5H-pyrrolo[2,3-d]pyrimidin-6(7H)-one] | 370 | 
19 | Nc1nc(-c2cn3ncnc3c(CCCC(F)(F)F)n2)nc2c1C(c1ccc(O)cn1)(C1CC1)C(=O)N2 (centres unmarked) [Example 112A, 4-amino-5-cyclopropyl-5-(5-hydroxypyridin-2-yl)-2-(8-(4,4,4-trifluorobutyl)-[1,2,4]triazolo[1,5-a]pyrazin-6-yl)-5H-pyrrolo[2,3-d]pyrimidin-6(7H)-one] | 212 | 

From patent US9822130B2, “Triazolo-pyrazinyl derivatives useful as soluble guanylate cyclase activators” (Merck Sharp & Dohme Corp., priority 2014, dated 2017)
